In one experiment the test system is M5076. Briefly: In vivo activity against murine tumour M5076. On the set-up: species or system mouse. The following applies: 5 mg/kg i.p. days 1, 5 and 9; 1 expt. As for the experimental part:
(§1) CD2-F1 mice, of the same sex, weighing within a 3 gram range surrounding 20 g, are used for this test. Control and test animals are injected intraperitoneally with a suspension of 10^6 viable P388/O tumour cells on day 0. In each test several dose levels which bracket the LD20 for the compound are evaluated; each dose level group contains 6 animals. The test compounds are prepared either in physiologic saline containing 0.05% Tween 80 or distilled water containing 5% dextrose and are administered intraperitoneally on days 1,5 and 9 relative to tumour implant. Doses are on a mg/kg basis according to individual animals' body weights. The day of death for each animal is recorded and the median day of death identified for each group. The difference between the median survival time for treated and control groups is expressed as a percentage increase in life span (% ILS).
(§2) G. In vivo activity of the compound of Example 1 against murine tumours
(§3) Using a similar procedure to the Lymphocytic Leukaemia P388/O test the compound of Example 1 was evaluated against the murine tumours B16, L1210 and M5076. A suspension of 10^6 tumour cells is implanted intraperitoneally into control and test animals on day zero. B16 tumour cells are administered intraperitoneally as a 1:10 Brei of cells on day zero. […] The day of death for each animal is recorded and the %ILS (percentage increase in life-span) calculated.

A further experiment has as its system P388/O tumour. The experiment is described as follows: Lymphocytic leukaemia P388/O test. The format is in vivo, mouse. The following applies: 10 mg/kg i.p. days 1, 5 and 9. As to the method: C. Lymphocytic Leukemia P388/O Test
as §1

Experiment [1] relates to WiDr human colon adenocarcinoma cells. Briefly: In vitro activity against human tumour cell line WiDr (proliferation). Type of experiment: cell-based. The following applies: 96 h, MTT, read-out: IC50. As for the experimental part: (§4) Cells from the human tumour cell lines DLD-1, HCT-116, WiDr and A549 are exposed to serially diluted concentrations of test compounds over a 96 hour period in culture. The ability of such cells to proliferate over the test period is determined.
(§5) Cells in log growth are plated into 96 well multiwell tissue culture dishes in 100 μl/well of RPMI 1640 culture medium supplemented with 10% foetal calf serum, antibiotics and test compound. All compounds are formulated initially at appropriate concentrations in DMSO, the final concentrations in this solvent being twenty times that required in the plate. A final 1 in 10 dilution in complete medium is then made before adding 100 μl to each well of the plate. All compounds are evaluated at concentrations ranging serially in four fold decrements from a top concentration some four fold greater than that already known to inhibit the proliferation of cells from the mouse lymphoid neoplasm, P388D1 by about 80 to 90 percent in a primary proliferative assay.
(§6) After 96 hours the proliferation of cells exposed to test compound is compared with control untreated cells by one of two methods:
(§7) b) 20 μl of MTT (5 mg/ml in PBS) is added to each well. After an incubation period of 4 hours the medium from each well is aspirated and replaced with 200 μl DMSO to dissolve the formazan crystals formed. Absorbances are read by an ELISA plate spectrophotometer at a wavelength of 540 nm. The IC50 is defined as that concentration of drug which decreases absorbance to 50% of that in control (drug-free) cultures. This method is used for the WiDr, HCT-116 and A549 cell lines.

The subject of experiment [2] is A549 human lung carcinoma cells. The experiment is described as follows: In vitro activity against human tumour cell line A549 (proliferation). The following applies: A549, 96 h, MTT, read-out: IC50. Type of experiment: cell-based. As for the experimental part:
as §4, §5, §6, §7

A further experiment deals with P388/MTX. Briefly: In vivo activity against drug resistant tumour P388/MTX. On the set-up: species or system mouse. The following applies: optimum dose 7.5 mg/kg. As for the experimental part: as §1
(§8) E. Activity Against Drug-Resistant Tumours
(§9) Using a similar procedure to the Lymphocytic Leukaemia P388/O test, the compound of Example 1 was evaluated against P388/O tumours which had been made resistant to the following standard, clinically used anti-tumour agents: […]

In another experiment the test system is L1210. The experiment is described as follows: In vivo activity against murine tumour L1210. On the set-up: species or system mouse.
For another experiment, the system named is P388/5FU. Briefly: In vivo activity against drug resistant tumour P388/5FU. The following applies: optimum dose 10.0 mg/kg. On the set-up: species or system mouse. As for the experimental part:
as §1, §8, §9

The subject of experiment [3] is DLD-1 human colon carcinoma cells. The experiment is described as follows: In vitro activity against human tumour cell line DLD-1 (proliferation). The following applies: DLD-1, 96 h, methylene blue, read-out: IC50. The format is cell-based. As to the method: as §4, §5, §6
a) Culture supernatants are aspirated and cells fixed and stained by adding a solution of methylene blue (5 g per liter of 50% ethanol: water, 100 μl/well). After 30 minutes at room temperature unbound stain is washed off by immersing plates in water. Stained cells are solubilised overnight using 1% Sarkosyl (Sigma) in phosphate-buffered saline (100 μl/well). Absorbances are read by an ELISA plate spectrophotometer at a wavelength of 620 nm. The IC50 is defined as that concentration of drug which decreases absorbance to 50% of that in control (drug-free) cultures. This method is used for the DLD-1 cell line.

In a further experiment the test system is B16. The experiment is described as follows: In vivo activity against murine tumour B16. Details: species or system mouse. As for the experimental part: as §1, §2, §3
The next experiment has as its system P388/Cis--Pt. Briefly: In vivo activity against drug resistant tumour P388/Cis-Pt. On the set-up: species or system mouse. The following applies: optimum dose 10.0 mg/kg.
A further experiment has as its system P388/ADR. The experiment is described as follows: In vivo activity against drug resistant tumour P388/ADR. On the set-up: species or system mouse. The following applies: optimum dose 10.0 mg/kg. As for the experimental part: as §1, §8, §9
Experiment [4] deals with HCT-116 human colon carcinoma cells. Briefly: In vitro activity against human tumour cell line HCT-116 (proliferation). The format is cell-based. The following applies: HCT-116, 96 h, MTT, read-out: IC50. As for the experimental part:
as §4, §5, §6, §7

Another experiment has as its system P388/CPA. The experiment is described as follows: In vivo activity against drug resistant tumour P388/CPA. On the set-up: species or system mouse. The following applies: optimum dose 12.5 mg/kg.

This is an account of results in US5380759A, “Methyl N-[6-(3,4,5-trimethoxybenzloxy)imidazo[1,2-b]pyridazin-2-zyl]carbamate used to treat leukemia” (priority 1987, dated 1995).

The ILS is how much longer treated animals lived than controls. A higher ILS goes with a large benefit in survival. As usually defined, the IC50 is the concentration that inhibits the measured activity by half. Regarding `COC(=O)Nc1cn2nc(OCc3cc(OC)c(OC)c(OC)c3)ccc2n1` [Example 1, Methyl N-[6-(3,4,5-trimethoxybenzyloxy)imidazo[1,2-b]pyridazin-2-yl]carbamate], the “Mean % ILS (±SEM)” value in the experiment on M5076 is recorded as 28%; in the experiment on L1210 (10 mg/kg i.p. days 1, 5 and 9, 2 expts), 134 (±72) %; in the experiment with B16 (5 mg/kg i.p. days 1, 5 and 9, 3 expts), 69 (±4) %. The “30 Day survivors” value in the experiment with P388/O tumour is 6/6. Besides, the “60 Day Survivors” value in the experiment on P388/O tumour is 2/6; in the experiment with P388/MTX, 1/6; in the experiment with P388/5FU, 0/6; with P388/Cis--Pt, 1/6; in the experiment with P388/ADR it was 0/6; in the experiment on P388/CPA it was 1/6. Also, the ILS at 10 mg/kg in the experiment with P388/O tumour (Mus musculus, P388, ip) is 300%. The IC50 in experiment [1] is 30 nM; in experiment [2], 24 nM; in [3], 11.6 nM; in experiment [4], 9.2 nM. Also, the “% ILS” value in the experiment on P388/MTX is “+100%”; with P388/5FU it was “+92%”; with P388/Cis--Pt, “+50%”; in the experiment with P388/ADR, “+90%”; in the experiment with P388/CPA, “+150%”. The “activity in vivo against L1210 leukaemia” value with L1210 (in words) is reported as “good activity”. For the same molecule, the “activity in vivo against B16 melanoma” value in the experiment with B16 (in words) is “good activity”.
